In patent US10799590B2, “Compositions containing a bitter tastant and at least one sophorolipid, and methods of reducing bitter taste attributed to a bitter tastant in an edible composition” (The United States of America, as Represented by the …, priority 2015, dated 2020):

Molecular target: T1, sweet receptor (T1R2+T1R3) (Homo sapiens, UniProt Q7RTX0)
T1 construct: culture human fungiform taste papillae cells retaining their physiological and molecular characteristics; endogenous in cells; host or cells: cultured primary human fungiform taste papillae (HBO) cells
T1 sequence (Q7RTX0 21-852): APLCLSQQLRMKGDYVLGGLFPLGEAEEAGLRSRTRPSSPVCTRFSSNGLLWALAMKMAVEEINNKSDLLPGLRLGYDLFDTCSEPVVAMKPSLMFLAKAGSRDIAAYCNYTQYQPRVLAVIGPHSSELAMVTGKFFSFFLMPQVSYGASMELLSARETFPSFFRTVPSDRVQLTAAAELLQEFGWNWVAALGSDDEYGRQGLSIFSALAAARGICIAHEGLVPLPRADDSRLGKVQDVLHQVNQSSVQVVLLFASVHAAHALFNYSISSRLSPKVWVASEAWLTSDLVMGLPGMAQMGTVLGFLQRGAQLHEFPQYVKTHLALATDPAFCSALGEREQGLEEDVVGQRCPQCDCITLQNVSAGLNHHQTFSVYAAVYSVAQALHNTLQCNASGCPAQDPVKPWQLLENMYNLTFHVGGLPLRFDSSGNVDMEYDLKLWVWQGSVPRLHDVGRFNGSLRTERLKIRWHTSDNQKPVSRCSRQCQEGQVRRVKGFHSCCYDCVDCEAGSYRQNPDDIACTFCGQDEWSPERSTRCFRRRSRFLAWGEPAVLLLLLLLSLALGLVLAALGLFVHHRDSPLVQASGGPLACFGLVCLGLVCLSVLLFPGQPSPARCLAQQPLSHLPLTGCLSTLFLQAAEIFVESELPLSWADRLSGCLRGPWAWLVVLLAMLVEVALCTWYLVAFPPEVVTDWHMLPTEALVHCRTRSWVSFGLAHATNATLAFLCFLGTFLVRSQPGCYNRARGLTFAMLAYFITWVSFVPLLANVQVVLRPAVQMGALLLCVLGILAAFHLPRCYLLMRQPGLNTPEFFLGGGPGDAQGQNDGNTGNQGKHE
T1 sequence (Q8TE23 20-839 partner): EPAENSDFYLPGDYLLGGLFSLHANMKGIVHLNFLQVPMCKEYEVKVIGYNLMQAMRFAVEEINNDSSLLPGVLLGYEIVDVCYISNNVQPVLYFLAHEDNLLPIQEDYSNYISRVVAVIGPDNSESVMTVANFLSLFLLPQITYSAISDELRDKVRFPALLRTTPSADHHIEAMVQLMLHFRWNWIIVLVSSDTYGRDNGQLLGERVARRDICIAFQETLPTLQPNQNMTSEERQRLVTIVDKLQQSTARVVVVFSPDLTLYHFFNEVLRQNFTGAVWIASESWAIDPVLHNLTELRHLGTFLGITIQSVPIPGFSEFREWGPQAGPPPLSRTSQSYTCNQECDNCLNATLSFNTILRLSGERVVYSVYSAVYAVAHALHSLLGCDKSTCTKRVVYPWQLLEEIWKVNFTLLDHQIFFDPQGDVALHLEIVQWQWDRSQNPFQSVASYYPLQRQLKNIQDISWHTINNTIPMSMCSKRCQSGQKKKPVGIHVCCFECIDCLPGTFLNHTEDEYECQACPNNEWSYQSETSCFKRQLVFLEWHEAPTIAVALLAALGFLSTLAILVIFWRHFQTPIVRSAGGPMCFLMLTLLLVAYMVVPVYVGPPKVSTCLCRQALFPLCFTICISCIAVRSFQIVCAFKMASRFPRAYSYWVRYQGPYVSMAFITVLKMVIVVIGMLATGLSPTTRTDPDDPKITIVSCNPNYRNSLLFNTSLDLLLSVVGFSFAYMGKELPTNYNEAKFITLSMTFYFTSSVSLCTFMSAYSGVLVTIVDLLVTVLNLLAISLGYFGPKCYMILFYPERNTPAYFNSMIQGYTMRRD
Experiment: Lactisole sensitivity of sophorolipid-induced calcium responses in cultured HBO cells
Assay type: cell-based
Conditions: lactisole = T1R3 blocker; C16-SL-responsive cells n=29 (FIG. 4)
Source text: In vitro cell-based assay of sweet property. Establishment and maintenance of cultures of human fungiform taste papillae cells (HBO cells): We previously established the current proprietary protocol (Ozdener, H., et al., Chem. Senses, 31(3): 279-90 (2006); Ozdener, M. H., et al., Chem. Senses, 36(7): 601-12 (2011); Ozdener, H., et al., Isolation and culture of human fungiform taste papillae cells, J. Vis. Exp., 2012 May 17;(63):e3730) which allowed us to culture human fungiform taste papillae cells retaining their physiological and molecular characteristics for more than a year.
The human fungiform taste papillae cells were cultured according to protocols that we have published (Ozdener et al. 2006, Ozdener et al. 2011). […]
Calcium imaging: Cultured taste cells grown for 3-4 days glass coverslips which were loaded for 30-60 min with the calcium sensitive dye fura-2 by incubating the cells in Ringer solution (145 mM NaCl, 5 mM KCl, 1 mM MgCl2, 1 mM CaCl2, 1 mM Na-pyruvate, 20 mM Hepes-Na and Cellobiose 15 mM, pH 7.2 with osmolarity adjusted to 300-310 by 5M NaCl) supplemented with […] (Molecular Probes Inc., Eugene, Oreg.) and 10 mg/ml Pluronic® F127 (Molecular Probes Inc.). […] Stimuli were dissolved in Ringer and then pH and osmolarity readjusted if needed. […]

- effect of lactisole on induced Ca responses, lactisole-sensitive HBO cells: lactisole sensitive
SMILES: OC[C@H]1O[C@@H](O[C@@H]2[C@@H](O)[C@H](O)[C@@H](CO)O[C@H]2O)[C@H](O)[C@@H](O)[C@@H]1O [Sophorose, 2-O-β-D-glucopyranosyl-β-D glucopyranose]
